Data as given in patent publication US20260224534A1, “ALPHA-2-ADRENERGIC AGONISTS FOR IMPROVING VISION” (Bausch + Lomb Ireland Limited, priority 2023, published 2026).

Columns and labels:
Type in all cases: in vivo, human
[1] = tested on: patients with glaucoma or ocular hypertension; assay: Phase 1/2 study Part 2: visual field mean deviation; conditions: for visual field change in mean deviation: non-study eye, Day 14; for visual field mean deviation change from Baseline at Day 14: study eyes, positive change = improvement; for Improvement ≥1 dB in Study Eye, number of patients / Improvement ≥1 dB in Study Eye, percentage of patients / Improvement ≥1 dB in Treated Non-Study Eye, number of patients / Improvement ≥1 dB in Treated Non-Study Eye, percentage of patients: visual field
[2] = tested on: patients with glaucoma or ocular hypertension; assay: Phase 1/2 study: safety, tolerability and comfort; conditions: both doses (0.15%, 0.4%)
Excerpt: (§1) Part 1 was an open-label dose escalation study. The purpose of Part 1 of this study (WB007-001), was to assess the safety, tolerability, and IOP-lowering effects of a single drop of an ophthalmic solution containing [3-[(1S)-1-(1H-imidazole-5-yl)ethyl]-2-methylphenyl]methyl-2,2-dimethylpropanoate (Compound 1) with concentrations ranging from 0.05% to 0.4%. […] In addition to assessing the efficacy of Compound 1 on lowering IOP, the study also assessed the effects of the drug on visual function.

[3] = tested on: patients with glaucoma or ocular hypertension; assay: Phase 1/2 study Part 2: low-luminance ETDRS visual acuity
Excerpt: Low-luminance visual acuity refers to visual acuity determined using the standard Early Treatment Diabetic Retinopathy Study (ETDRS) chart with a 2.0 log unit neutral density filter placed in front of the eye.
as §1
Additional analyses examining the effect of Compound 1 on visual function included low-luminance visual acuity and visual fields.

[4] = tested on: patients with glaucoma or ocular hypertension; assay: Phase 1/2 study Part 2: double-masked, randomized, active controlled, ocular hypotensive efficacy (IOP), twice daily; conditions: for mean change from baseline in IOP, primary endpoint: Part 2, Day 14, Hour 2, study eye; for IOP-lowering effect, mean change from baseline in the study eye at all postbaseline timepoints: Part 2, both Compound 1 groups (0.15%, 0.4%) p≤0.007, Timolol p≤0.004
[5] = tested on: patients with glaucoma or ocular hypertension; assay: Phase 1/2 study Part 2: pupil size
Excerpt: as §1
The effect of Compound 1 on pupil size was assessed at the baseline visit and on Day 14.

Cc1c(COC(=O)C(C)(C)C)cccc1[C@H](C)c1c[nH]cn1 [Compound 1, [3-[(1S)-1-(1H-imidazole-5-yl)ethyl]-2-methylphenyl]methyl-2,2-dimethylpropanoate]
visual field change in mean deviation ([1]; 0.15%): 0.4±1.5 dB | visual field change in mean deviation ([1]; 0.4%): −0.2±1.4 dB | visual field mean deviation change from Baseline at Day 14 ([1]; 0.15%): 0.2±1.2 dB | visual field mean deviation change from Baseline at Day 14 ([1]; 0.4%): −0.5±2.3 dB | Improvement ≥1 dB in Study Eye, number of patients ([1]; 0.15%): 9 patients | Improvement ≥1 dB in Study Eye, percentage of patients ([1]; 0.15%): 39% | Improvement ≥1 dB in Treated Non-Study Eye, number of patients ([1]; 0.15%): 7 patients | Improvement ≥1 dB in Treated Non-Study Eye, percentage of patients ([1]; 0.15%): 30% | Improvement ≥1 dB in Study Eye, number of patients ([1]; 0.4%): 6 patients | Improvement ≥1 dB in Study Eye, percentage of patients ([1]; 0.4%): 25% | Improvement ≥1 dB in Treated Non-Study Eye, number of patients ([1]; 0.4%): 6 patients | Improvement ≥1 dB in Treated Non-Study Eye, percentage of patients ([1]; 0.4%): 25% | safety and tolerability [2]: safe and well-tolerated | percentage of subjects achieving an increase in ETDRS visual acuity of 15 or more letters under low luminance on at least one study visit ([3]; non-study eye, 0.15%): 17.4% | percentage of subjects achieving an increase in ETDRS visual acuity of 15 or more letters under low luminance on at least one study visit ([3]; non-study eye, 0.4%): 25.0% | effect on low luminance visual acuity ([3]; patients receiving 0.15% or 0.4%): Dose related improvements in low luminance visual acuity | percentage of subjects achieving an increase in ETDRS visual acuity of 15 or more letters under low luminance on at least one study visit ([3]; study eye, 0.15%): 8.7% | percentage of subjects achieving an increase in ETDRS visual acuity of 15 or more letters under low luminance on at least one study visit ([3]; study eye, 0.4%): 16.7% | mean change from baseline in IOP, primary endpoint ([4]; 0.15% twice daily): −4.9±1.8 mm Hg | mean change from baseline in IOP, primary endpoint ([4]; 0.4% twice daily): −5.1±2.5 mm Hg | IOP-lowering effect, mean change from baseline in the study eye at all postbaseline timepoints [4]: statistically significant IOP-lowering effects | effect on pupil size ([5]; either dose (0.15%, 0.4%)): no meaningful decrease in pupil size | mean change in pupil size from Baseline to Day 14 at Hour 0 ([5]; study eyes, 0.15%): 0.0 mm | mean change in pupil size from Baseline to Day 14 at Hour 0 ([5]; study eyes, 0.4%): −0.1 mm | mean change in pupil size from Baseline to Day 14 at Hour 0 ([5]; treated non-study eyes, 0.15%): 0.0 mm | mean change in pupil size from Baseline to Day 14 at Hour 0 ([5]; treated non-study eyes, 0.4%): −0.1 mm

CC(C)(C)NC[C@H](O)COc1nsnc1N1CCOCC1 [Timolol, timolol, reference compound]
visual field change in mean deviation ([1]; Timolol 0.5%): −2.0±3.4 dB | visual field mean deviation change from Baseline at Day 14 ([1]; Timolol 0.5%): −1.2±2.3 dB | Improvement ≥1 dB in Study Eye, number of patients ([1]; Timolol 0.5%): 2 patients | Improvement ≥1 dB in Study Eye, percentage of patients ([1]; Timolol 0.5%): 17% | Improvement ≥1 dB in Treated Non-Study Eye, number of patients ([1]; Timolol 0.5%): 0 patients (0%) | Improvement ≥1 dB in Treated Non-Study Eye, percentage of patients ([1]; Timolol 0.5%): 0 patients (0%) | percentage of subjects achieving an increase in ETDRS visual acuity of 15 or more letters under low luminance on at least one study visit ([3]; non-study eye, timolol 0.5%): 8.3% | percentage of subjects achieving an increase in ETDRS visual acuity of 15 or more letters under low luminance on at least one study visit ([3]; study eye, timolol 0.5%): 0% | mean change from baseline in IOP, primary endpoint ([4]; 0.5% timolol ophthalmic solution): −6.0±3.0 mm Hg | IOP-lowering effect, mean change from baseline in the study eye at all postbaseline timepoints [4]: statistically significant IOP-lowering effects | mean change in pupil size from Baseline to Day 14 at Hour 0 ([5]; study eyes, Timolol 0.5%): −0.1 mm | mean change in pupil size from Baseline to Day 14 at Hour 0 ([5]; treated non-study eyes, Timolol 0.5%): −0.1 mm
